# Measurements as given in patent US20060069132A1, “Azolecarboxamide herbicides” (priority 2004, published 2006).
# Experiments:
# [1] = tested on: large crabgrass; experiment: Test A pre-/postemergence herbicide test; type: in vivo, Digitaria sanguinalis
# In short: (§1)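 Pre: seeded sandy loam, directed soil spray, compound in non-phytotoxic solvent + surfactant. Post: 1–2-leaf plants (2–10 cm), sprayed to runoff. Greenhouse ~10 d; visual injury vs untreated, 0–100 scale.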
# [2] = tested on: rice; experiment: Test B pre-/postemergence herbicide test; type: in vivo, Oryza sativa; conditions: preemergence; for Rice plant response rating (0 to 100 scale): 125 g ai/ha; for Plant response rating, Rice: 500 g ai/ha
# In short: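 Plants compared with untreated controls 13–15 days post-treatment and given a visual 0–100 injury score. Applications: preemergence to seeds; postemergence at 1- to 4-leaf (2–18 cm); paddy species flooded, 2-leaf stage. Vehicle non-phytotoxic, surfactant included.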
# [3] = tested on: large crabgrass; experiment: Test C pre-/postemergence herbicide test; type: in vivo, Digitaria sanguinalis
# In short: (§2)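 Visual injury scores run from 0 (no effect) to 100 (complete control), assessed relative to untreated controls 12 to 14 days after treatment in the greenhouse. Chemicals were formulated in a non-phytotoxic solvent mixture with surfactant and applied to soil after planting or to emerged plants at the 1- to 4-leaf stage.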
# [4] = tested on: johnsongrass; experiment: Test C pre-/postemergence herbicide test; type: in vivo, Sorghum halepense
# In short: as §2
# [5] = tested on: corn; experiment: Test C pre-/postemergence herbicide test; type: in vivo, Zea mays
# In short: as §2
# [6] = tested on: eastern black nightshade; experiment: Test C pre-/postemergence herbicide test; type: in vivo, Solanum ptycanthum; conditions: for Nightshade plant response rating: Preemergence, scale 0 to 100, 0 no effect, 100 complete control
# In short: as §2
# [7] = tested on: redroot pigweed; experiment: Test A pre-/postemergence herbicide test; type: in vivo, Amaranthus retroflexus
# In short: as §1
# [8] = Postemergence, 500 g ai/ha, 0 to 100 scale, 0 no effect, 100 complete control
# [9] = Postemergence, 2000 g ai/ha, 0 to 100 scale, 0 no effect, 100 complete control
# [10] = Preemergence, 2000 g ai/ha, visual rating, 0 to 100 scale (0 no effect, 100 complete control)
# [11] = preemergence, 500 g ai/ha, visual injury, 0 to 100 scale (0 no effect, 100 complete control)
# [12] = 0 = no effect, 100 = complete control
# [13] = visual rating 0-100, 0 no effect, 100 complete control
# [14] = 62 g ai/ha, preemergence, scale 0 to 100
# [15] = 125 g ai/ha, scale 0 (no effect) to 100 (complete control), visual, 12 to 14 days, preemergence
# [16] = 250 g ai/ha, scale 0-100, preemergence
# [17] = Preemergence, 500 g ai/ha, scale 0 to 100, 0 no effect, 100 complete control
# [18] = 250 g ai/ha, scale 0 to 100 (0 no effect, 100 complete control), visual, 12 to 14 days, preemergence
# [19] = 500 g ai/ha, scale 0 to 100 (0 no effect, 100 complete control), visual, 12 to 14 days, preemergence
# [20] = Postemergence, 500 g ai/ha, scale 0 to 100
# [21] = Postemergence, 250 g ai/ha, scale 0 to 100, 0 no effect, 100 complete control
# [22] = postemergence, 125 g ai/ha, scale 0 to 100
# [23] = postemergence, 62 g ai/ha, scale 0 to 100
# [24] = visual rating, 0 = no effect, 100 = complete control
Compound,"Crabgrass, Large plant response rating [1, 8]","Plant response rating, Crabgrass, Large [1, 9]","Crabgrass, Large plant response rating [1, 10]","Crabgrass, Large plant response rating [1, 11]","Rice plant response rating (0 to 100 scale) [2, 12]","Plant response rating, Crabgrass, Large [3, 14]","Plant response rating, Crabgrass, Large [3, 15]","Plant response rating, Crabgrass, Large [3, 16]","Plant response rating, Johnsongrass [4, 14]","Plant response rating, Johnsongrass [4, 15]","Plant response rating, Johnsongrass [4, 16]","Plant response rating, Corn [5, 15]","Plant response rating, Corn [5, 16]","Plant response rating, Nightshade [6, 14]","Plant response rating, Nightshade [6, 15]","Plant response rating, Nightshade [6, 16]","Pigweed plant response rating [7, 8]","Plant response rating, Pigweed [7, 9]","Pigweed plant response rating [7, 10]","Pigweed plant response rating [7, 11]",other results
CCc1nc(C(C)(C)C)sc1C(=O)Nc1cccc(C(=O)N(CC)CC)c1 [Compound 205],10,20,95,80,10,60,80,100,0,10,60,0,0,80,100,100,50,65,100,100,"Plant response rating, Rice [2, 13]: 70; Crabgrass, Large plant response rating [3, 17]: 100; Johnsongrass plant response rating [4, 17]: 85; Plant response rating, Corn [5, 14]: 0; Corn plant response rating [5, 17]: 40; Nightshade plant response rating ([6]; 500 g ai/ha): 100"
CCN(CC)C(=O)c1cccc(NC(=O)c2sc(C(C)(C)C)nc2C)c1 [Compound 199],15,50,100,70,0,10,90,90,0,30,60,0,0,85,95,100,80,80,100,100,"Plant response rating, Rice [2, 13]: 20; Crabgrass, Large plant response rating [3, 17]: 95; Johnsongrass plant response rating [4, 17]: 90; Plant response rating, Corn [5, 14]: 0; Corn plant response rating [5, 17]: 0; Nightshade plant response rating ([6]; 500 g ai/ha): 100"
CCCCOc1cccc(NC(=O)c2cc(C(C)(C)C)nn2CC)c1 [Compound 137],30,60,90,–,–,–,70,–,–,5,–,5,–,–,85,–,90,100,90,60,"Crabgrass, Large plant response rating ([1]; Preemergence, 500 g ai/ha, visual rating, 0 to 100 scale (0 no effect, 100 complete control)): 55; Plant response rating, Rice [2, 13]: 10; Plant response rating (0 = no effect, 100 = complete control), Crabgrass, Large ([3]; 62 g ai/ha, preemergence): 40; Plant response rating, Crabgrass, Large [3, 18]: 100; Crabgrass, Large plant response rating [3, 17]: 100; Plant response rating (0 = no effect, 100 = complete control), Johnsongrass ([4]; 62 g ai/ha, preemergence): 0; Johnsongrass plant response rating [4, 17]: 40; Plant response rating (0 = no effect, 100 = complete control), Corn ([5]; 62 g ai/ha, preemergence): 0; Plant response rating, Corn [5, 18]: 5; Corn plant response rating [5, 17]: 5; Plant response rating (0 = no effect, 100 = complete control), Nightshade ([6]; 62 g ai/ha, preemergence): 60; Nightshade plant response rating ([6]; 500 g ai/ha): 90"
CCc1nc(C(C)(C)C)sc1C(=O)Nc1cccc(C(=O)NCC2CC2)c1 [Compound 212],45,60,95,90,10,60,80,85,0,0,50,0,30,70,100,100,75,90,100,100,"Plant response rating, Rice [2, 13]: 20; Plant response rating, Crabgrass, Large [3, 19]: 100; Crabgrass, Large plant response rating [3, 20]: 20; Plant response rating, Crabgrass, Large [3, 21]: 20; Plant response rating, Crabgrass, Large [3, 22]: 10; Plant response rating, Crabgrass, Large [3, 23]: 0; Plant response rating, Johnsongrass [4, 19]: 60; Johnsongrass plant response rating [4, 20]: 35; Plant response rating, Johnsongrass [4, 21]: 35; Plant response rating, Johnsongrass [4, 22]: 30; Plant response rating, Johnsongrass [4, 23]: 0; Plant response rating, Corn [5, 14]: 0; Plant response rating, Corn [5, 19]: 40; Corn plant response rating [5, 20]: 40; Plant response rating, Corn [5, 21]: 40; Plant response rating, Corn [5, 22]: 35; Plant response rating, Corn [5, 23]: 15; Plant response rating, Nightshade [6, 19]: 100"
CCNC(=O)c1ccc(F)c(NC(=O)c2cc(C3(C)CC3)nn2CC)c1 [Compound 300],55,90,100,90,40,100,100,100,60,85,95,30,35,100,100,100,90,100,100,95,"Plant response rating, Rice [2, 24]: 70; Plant response rating, Corn [5, 14]: 30"
CCNC(=O)c1ccc(F)c(NC(=O)C2CC(C(C)(C)C)=NN2CC)c1 (racemic) [Compound 269],35,80,100,65,70,95,100,100,40,60,100,20,40,90,100,100,35,50,100,100,"Plant response rating, Rice [2, 24]: 90; Plant response rating, Crabgrass, Large [3, 19]: 100; Plant response rating, Johnsongrass [4, 19]: 100; Plant response rating, Corn [5, 19]: 55; Plant response rating, Nightshade [6, 19]: 100"
